# Laboratory results reported in patent US9073857B2, “Aripiprazole type I microcrystal, aripiprazole solid preparations, and preparation method” (SHANGHAI ZHONGXI PHARMACEUTICAL CORPORATION, priority 2011, dated 2015).
# Experiment: not given
# Details: crushed by the universal grinder through mechanical pulverization; cited from earlier work
row,SMILES,average particle size
1,"O=C1CCc2ccc(OCCCCN3CCN(c4cccc(Cl)c4Cl)CC3)cc2N1 [aripiprazole, 7-[4-[4-(2,3-dichlorophenyl)-1-piperazinyl]butoxy]-3,4-dihydro-2(1H)-quinolinone]",about 100 micron

# Experiment: not given
# Details: within 45 minutes; disclosed at the Japan and South Korea Analytical Chemistry Annual Meeting in 1998; cited from earlier work
row,SMILES,dissolution rate
1,"O=C1CCc2ccc(OCCCCN3CCN(c4cccc(Cl)c4Cl)CC3)cc2N1 [aripiprazole type I crystal, aripiprazole]",less than 70%

# Experiment: Particle size by laser particle size distribution analyzer
# Format: physicochemical
# Details: Effect Example 2; microcrystals of the Examples
# Procedure: Measure the particle size of aripiprazole in the sample by the following methods, and compare the particle size of aripiprazole in different prescriptions and under different operating conditions.
# Test Instrument: BT˜9300S laser particle size distribution analyzer (Dandong Baxter technology Co., Ltd); BT˜800 automatic loop sampling system.
# Test conditions: the medium of the loop sampling system is water, with the volume of about 570 ml, and the centrifugal pump speed is 1600 rpm.
# Test Method: add appropriate amount of the samples into the loop sampling system, and make the absorbance of the system up to 15%±10, turn on the ultrasonic dispersion for 3 min, continuous sample for 6 times, and gain the average particle size.
# 1. Dissolve 10 g aripiprazole into aqueous ethanol solution containing hydrochloric acid (the molar ratio of hydrochloric acid to aripiprazole is 1.1, the concentration of the aqueous ethanol solution is 95%, the mass of the aqueous ethanol solution is 30 g), quickly add the 10% aqueous sodium hydroxide (the molar ratio of sodium hydroxide to hydrochloric acid is 1.01) all at once while stirring. Stir for 5 min then add 100 g water, stir again for 5 min, filter the precipitated crystal, wash twice with 20 g water each time and filter each time, dry the crystal at 80° C. for 4 hours, then obtain the aripiprazole microcrystal.
# (§1) 2. Dissolve 10 g aripiprazole into aqueous ethanol solution with hydrochloric acid (the molar ratio of hydrochloric acid to aripiprazole is 1.02), quickly add the 10% aqueous sodium hydroxide (the molar ratio of sodium hydroxide to hydrochloric acid is 1.0) all at once while stirring (with stirring linear speed of 160 m/min). Stir for 5 min then add 100 g water, stir again for 5 min, filter the precipitated crystal, wash twice with 20 g water each time and filter each time, dry the crystals at 80° C. for 4 hours, then obtain the aripiprazole microcrystal.
# as §1, with “3. Dissolve” for “2. Dissolve”, “acid (2.3 g 36% hydrochloric acid, 28.5 g anhydrous ethanol. The concentration” for “acid (the molar ratio”, “of the aqueous ethanol solution” for “of hydrochloric acid to aripiprazole”, “is 95%),” for “is 1.02), quickly”, “1.0)” for “1.0) all at once”, “the crystal” for “the crystals”
particle size D10 [micron],particle size D50 [micron],particle size D90 [micron],"particle size D[4,3] [micron]",SMILES
9.31,29.85,60.39,32.85,"O=C1CCc2ccc(OCCCCN3CCN(c4cccc(Cl)c4Cl)CC3)cc2N1 [Contrastive Example 1, aripiprazole]"
1.85,10.91,29.82,14.17,"O=C1CCc2ccc(OCCCCN3CCN(c4cccc(Cl)c4Cl)CC3)cc2N1 [Example 2, aripiprazole]"
1.43,11.64,34.65,15.64,"O=C1CCc2ccc(OCCCCN3CCN(c4cccc(Cl)c4Cl)CC3)cc2N1 [Example 3, aripiprazole]"
1.18,8.78,24.78,10.99,"O=C1CCc2ccc(OCCCCN3CCN(c4cccc(Cl)c4Cl)CC3)cc2N1 [Example 4, aripiprazole]"
0.74,4.75,16.34,6.79,"O=C1CCc2ccc(OCCCCN3CCN(c4cccc(Cl)c4Cl)CC3)cc2N1 [Example 5, aripiprazole]"
1.52,9.67,32.17,13.42,"O=C1CCc2ccc(OCCCCN3CCN(c4cccc(Cl)c4Cl)CC3)cc2N1 [Example 23, aripiprazole]"
1.00,3.93,8.7,4.73,"O=C1CCc2ccc(OCCCCN3CCN(c4cccc(Cl)c4Cl)CC3)cc2N1 [Example 24, aripiprazole]"

# Same assay, conditions: starting aripiprazole microcrystals of Example 1
row,"D[4,3] [mircon]",SMILES
1,32.85,"O=C1CCc2ccc(OCCCCN3CCN(c4cccc(Cl)c4Cl)CC3)cc2N1 [aripiprazole microcrystals, aripiprazole]"
